{"source": "patent US5985908A", "about": "“MCBI analogs of CC-1065 and the duocarmycins” (The Scripps Research Institute, priority 1998, dated 1999)", "key": {"L1210": {"system": "L1210", "test": "In vitro cytotoxic activity", "type": "cell-based", "settings": "for cytotoxic potency of natural enantiomer relative to unnatural enantiomer: fold, natural more potent than unnatural; for enantiomer distinction (in words): natural vs unnatural enantiomer"}, "[1]": {"system": "w794 5'-AATTA high affinity site", "test": "Relative rate of w794 alkylation at the 5'-AATTA high-affinity site", "type": "biochemical, SV40", "settings": "10^-6 M; for relative rate of DNA alkylation k(254):k(CBI-TMI):k(2): 4° C., 0-48 hours", "protocol": "FIG. 15 illustrates a plot of percent integrated optical density (% IOD) versus time established through autoradiography of 5'-^32 P and labeled DNA and used to monitor the relative rate of w794 alkylation at the 5'-AATTA high-affinity site for 1, 254, 258, (+)-CBI-TMI and (+)-DSA-indole2.\nRepresentative of this difficulty in detecting distinguishing relative rates for the three classes of agents, a similar rate comparison of (+)-DSA-indole2 and (+)-MCBI-indole2 (258) conducted at 25° C. […] In sharp contrast, all three kinetically alkylate DNA much faster than the corresponding CPI-based agent (10-50×) where the distinctions are much more pronounced and easily experimentally distinguished."}, "[2]": {"system": "w794 DNA (SV40 DNA fragment, 144 bp)", "test": "DNA alkylation, thermally-induced strand cleavage of w794 DNA", "type": "biochemical", "settings": "for selectivity and efficiency of DNA alkylation, natural enantiomers compared: 25° C., 24 hours, 254 vs 2, 266 vs 1; for concentration of detectable DNA alkylation, natural enantiomers: w794, 25° C., 24 hours (FIG. 17); for concentration of detectable DNA alkylation, unnatural enantiomers: 72 hours (FIG. 13)", "protocol": "FIG. 13 illustrates thermally-induced strand cleavage of double-stranded DNA (SV40 DNA fragment, 144 bp, nucleotide no. 5238-138, clone w794) after 72 hours incubation of agent-DNA at 37° C. followed by removal of unbound agent and 30 minutes incubation at 100° C.; 8% denaturing PAGE and autoradiography. Lane 1, control DNA; lanes 2-4, (-)-MCBI-TMI (254, 1×10^-5 to 1×10^-7 M); lanes 5-7, (-)-duocarmycin SA (2, 1×10^-5 to 1×10^-7 M); lanes 8-11, Sanger G, C, A and T reactions; lanes 12-14, (-)-CC-1065 (1, 1×10^-5 to 1×10^-7 M); lanes 15-17, (-)-MCBI-CDPI2 (266, 1×10^-5 to 1×10^-7 M); lanes 18-20, (-)-MCBI-CDPI1 (262, 1×10^-5 to 1×10^-7 M); lanes 21-23 (-)-MCBI-indole2 (258, 1×10^-5 to 1×10^-7 M).\nAs indicated, the DNA-agent incubation was conducted at 37° C. for 24 or 48 hours, followed by removal of unbound agent and 30 minutes incubation at 100° C.; 8% denaturing PAGE and autoradiography.\nFIG. 17 illustrates thermally-induced strand cleavage of double-stranded DNA (SV40 DNA fragment, 144 bp, nucleotide no. 5238-138, clone w794) after 24 hours incubation of agent-DNA at 25° C. followed by removal of unbound agent and 30 minutes incubation at 100° C; 8% denaturing PAGE and autoradiography. Lane 1, control DNA; lanes 2-4, (+)-duocarmycin SA (2, 1×10^-5 to 1×10^-7 M); lanes 5-7, (+)-MCBI-TMI (254, 1×10^-5 to 1×10^-7 M); lanes 8-11, Sanger G, C, A and T reactions; lanes 12-14, (+)-CC-1065 (1, 1×10^-5 to 1×10^-7 M); lanes 15-17, (+)-MCBI-indole2 (258, 1×10^-5 to 1×10^-7 M); lanes 18-20, (+)-MCBI-CDPI2 (266, 1×10^-5 to 1×10^-7 M).\n(§1) The DNA alkylation properties of the agents were examined within four 150 base-pair segments of duplex DNA for which comparative results are available for related agents. Four clones of phage M13mp10 were selected for study and contain the SV40 nucleosomal DNA inserts w794 (nucleotide no. 5238-138) and its complement w836 (nucleotide no. 5189-91) and c988 (nucleotide no. 4359-4210) and its complement c820 (nucleotide no. 4201-4356). The alkylation site identification and the assessment of the relative selectivity among the available sites were obtained by thermally-induced strand cleavage of the singly 5'end-labeled duplex DNA after exposure to the agents. Following treatment of the end-labeled duplex DNA with a range of agent concentrations, the unbound agent was removed by EtOH precipitation of the DNA. Redissolution of the DNA in aqueous buffer, thermolysis (100° C., 30 minutes) to induce strand cleavage at the sites of DNA alkylation, denaturing high resolution polyacrylamide gel electrophoresis (PAGE) adjacent to Sanger dideoxynucleotide sequencing standards, and autoradiography led to identification of the DNA cleavage and alkylation sites. The full details of this procedure have been disclosed and discussed elsewhere (10). The DNA alkylation reaction selectivities observed under the incubation conditions of 25° C. (24 hours) for the agents detailed herein have proven identical to the alkylation selectivities observed with shorter or extended reaction periods or when the reactions were conducted at different temperatures (37 or 4° C., 0.5-7 days). As discussed below, the rates and efficiencies but not final relative efficiencies of DNA alkylation were altered by changing the reaction temperatures."}, "[3]": {"system": "w794 DNA (SV40 DNA fragment, 144 bp)", "settings": "cited from earlier work"}, "[4]": {"system": "duplex DNA (w794, w836, c988, c820)", "test": "DNA alkylation selectivity within four 150 base-pair segments of duplex DNA", "type": "biochemical, SV40", "excerpt": "as §1"}, "[5]": {"test": "Solvolysis reactivity (UV), aqueous buffer-CH3OH", "type": "physicochemical", "settings": "pH 7, 1:1 H2O-CH3OH"}, "[6]": {"test": "Solvolysis reactivity (UV), aqueous buffer-CH3OH", "type": "physicochemical", "protocol": "The solvolysis was followed spectrophotometrically by UV with the disappearance of the long-wavelength absorption band of the MCBI chromophore ([…]) and with the appearance of a short-wavelength absorption band (266 nm) attributable to seco-N-BOC-MCBI (FIG. 9).\nN-BOC-MCBI (238, 0.1 mg) was dissolved in CH3 OH (1.5 mL) and mixed with pH 3 aqueous buffer (1.5 mL). The buffer contained 4:1:20 (v:v:v) 0.1 M citric acid, 0.2 M Na2 HPO4, and H2 O, respectively. The solvolysis solution was sealed and kept at 25° C. protected from light. The UV spectrum was measured at regular intervals every 2 hours during the first day, every 12 hours for another week, and every 24 hours for an additional week. The decrease in the long-wavelength absorption at 324 nm and the increase in the short-wavelength absorption at 266 nm were monitored, FIG. 1.\nSimilarly, MCBI (240, 0.1 mg) was dissolved in CH3 OH (1.5 mL) and mixed with […] (1.5 mL). The solvolysis solution was sealed and stirred at 25° C. in the dark. The UV spectrum was recorded every 24 hours for two months. The decrease in the long-wavelength absorption at 340 nm and the increase in absorption at 268 nm were monitored, FIG. 1."}}}
{"smiles": "COc1ccc2c(c1)[C@@]13C[C@@H]1CN(C(=O)c1cc4cc(OC)c(OC)c(OC)c4[nH]1)C3=CC2=O", "note": "[(+)-MCBI-TMI]", "values": [{"measurement": "cytotoxic potency of natural enantiomer relative to unnatural enantiomer", "setting": "L1210", "result": 50, "unit": "×"}, {"measurement": "relative rate of DNA alkylation k(254):k(CBI-TMI):k(2)", "setting": "[1]", "result": 1.8}, {"measurement": "selectivity and efficiency of DNA alkylation, natural enantiomers compared", "setting": "[2]", "result": "indistinguishable"}, {"measurement": "concentration of detectable DNA alkylation, natural enantiomers", "setting": "[2]", "result": "10^-6 to 10^-7 M"}]}
{"smiles": "COC(=O)c1cc2c([nH]1)C(=O)C=C1N(C(=O)c3cc4cc(NC(=O)c5cc6ccccc6[nH]5)ccc4[nH]3)C[C@H]3C[C@]123", "note": "[(+)-DSA-indole2]", "values": [{"measurement": "relative rate k(DSA-indole2)/k(MCBI-indole2)", "setting": "[1]; 25° C., 0-24 hours", "result": 1.05}]}
{"smiles": "COc1cc2cc(C(=O)N3C[C@@H]4C[C@]45C3=CC(=O)c3ccccc35)[nH]c2c(OC)c1OC", "note": "[(-)-CBI-TMI]", "values": [{"measurement": "DNA alkylation distinction between (-)-CBI-TMI and ent-(-)-duocarmycin SA", "setting": "[3]; prior comparison", "result": 10, "unit": "×"}]}
{"smiles": "COc1ccc2c(c1)C13CC1CN(C(=O)c1cc4cc(OC)c(OC)c(OC)c4[nH]1)C3=CC2=O", "note": "(stereo not shown) [Compound 254]", "values": [{"measurement": "enantiomer distinction (in words)", "setting": "L1210; listed as MCBI-TMI", "result": "analogous distinctions but somewhat smaller than those observed with CBI-TMI"}, {"measurement": "AT-rich alkylation selectivity, size of site, natural enantiomers", "setting": "[4]", "result": 3.5, "unit": "base-pair"}, {"measurement": "concentration of detectable DNA alkylation, unnatural enantiomers", "setting": "[2]; w794, 37° C.", "result": "10^-5 M"}]}
{"smiles": "COc1ccc2c(c1)C13CC1CN(C(=O)OC(C)(C)C)C3=CC2=O", "note": "(stereo not shown) [Compound 238, N-(tert-Butyloxycarbonyl)-7-methoxy-1,2,9,9a-tetrahydrocyclopropa[c]benz[e]indol-4-one]", "values": [{"measurement": "evidence of solvolysis at pH 7", "setting": "[5]", "result": "did not show evidence of solvolysis"}, {"measurement": "alkylation selectivity of N-BOC-MCBI", "setting": "[2]; both enantiomers, two base-pair AT-rich selectivity", "result": "5'-AA>5'-TA"}, {"measurement": "DNA alkylation efficiency relative to 257-266", "setting": "[2]; fold less efficient, both enantiomers", "result": "10^4 ×"}, {"measurement": "concentration of detectable DNA alkylation, two enantiomers of N-BOC-MCBI", "setting": "[2]; w794, 37° C., 24-48 hours (FIG. 16)", "result": "10^-2 to 10^-3 M"}, {"measurement": "acceleration of rate of solvolysis by C7 methoxy group vs. corresponding CBI agent", "setting": "[6]; acid-catalyzed solvolysis, pH 3", "result": 1.6, "unit": "×"}, {"measurement": "half-life relative to parent agent N-BOC-CBI (4)", "setting": "[6]; pH 3", "result": 0.6, "unit": "times"}, {"measurement": "solvolysis rate constant k", "setting": "[6]; pH 3, 50% CH3OH-buffer, 25° C.", "result": "2.41e-06", "unit": "s⁻¹"}, {"measurement": "half-life", "setting": "[6]; pH 3, 50% CH3OH-buffer, 25° C., read-out: solvolysis half-life t1/2 (converted)", "result": 3.33, "unit": "days"}]}
{"smiles": "COC(=O)c1cc2c([nH]1)C(=O)C=C1N(C(=O)c3cc4cc(OC)c(OC)c(OC)c4[nH]3)CC3CC123", "note": "(single isomer, unassigned; (+)) [(+)-duocarmycin SA, reference compound]", "values": [{"measurement": "AT-rich alkylation selectivity, size of site, natural enantiomers", "setting": "[4]", "result": 3.5, "unit": "base-pair"}, {"measurement": "relative rate of DNA alkylation k(254):k(CBI-TMI):k(2)", "setting": "[1]", "result": 0.9}, {"measurement": "selectivity and efficiency of DNA alkylation, natural enantiomers compared", "setting": "[2]", "result": "indistinguishable"}, {"measurement": "concentration of detectable DNA alkylation, natural enantiomers", "setting": "[2]", "result": "10^-6 to 10^-7 M"}, {"measurement": "concentration of detectable DNA alkylation, unnatural enantiomers", "setting": "[2]; w794, 37° C.", "result": "10^-5 M"}]}
{"smiles": "COc1cc2cc(C(=O)N3C[C@H]4C[C@@]45C3=CC(=O)c3ccccc35)[nH]c2c(OC)c1OC", "note": "[(+)-CBI-TMI]", "values": [{"measurement": "relative rate of DNA alkylation k(254):k(CBI-TMI):k(2)", "setting": "[1]", "result": 1.0}]}
{"smiles": "CC(C)(C)OC(=O)N1C[C@H]2C[C@@]23C1=CC(=O)c1ccccc13", "note": "[(+)-N-BOC-CBI]", "values": [{"measurement": "relative efficiency of DNA alkylation, natural/unnatural enantiomer (earlier agent)", "setting": "[3]; (+)-N-BOC-CBI/ent-(-)-N-BOC-CBI", "result": "5-10 ×"}]}
{"smiles": "COc1c(O)c2c(c3cc(C(=O)N4CCc5c4c(O)c(OC)c4[nH]c(C(=O)N6C[C@H]7C[C@@]78C6=CC(=O)c6[nH]cc(C)c68)cc54)[nH]c13)CCN2C(N)=O", "note": "[(+)-CC-1065, reference compound]", "values": [{"measurement": "AT-rich alkylation selectivity, size of site, natural enantiomers", "setting": "[4]", "result": 5, "unit": "base-pair"}, {"measurement": "selectivity and efficiency of DNA alkylation, natural enantiomers compared", "setting": "[2]", "result": "essentially indistinguishable"}, {"measurement": "concentration of detectable DNA alkylation, natural enantiomers", "setting": "[2]", "result": "10^-7 M"}]}
{"smiles": "COc1ccc2c(c1)C13CC1CN(C(=O)c1cc4c5c(ccc4[nH]1)N(C(N)=O)CC5)C3=CC2=O", "note": "(stereo not shown) [Compound 262]", "values": [{"measurement": "cytotoxic potency of natural enantiomer relative to unnatural enantiomer", "setting": "L1210", "result": "1-3 ×"}, {"measurement": "enantiomer distinction (in words)", "setting": "L1210", "result": "essentially indistinguishable"}, {"measurement": "enantiomer distinction (in words)", "setting": "L1210; listed as MCBI-CDPI1", "result": "nearly equipotent"}, {"measurement": "AT-rich alkylation selectivity, size of site, natural enantiomers", "setting": "[4]", "result": 3.5, "unit": "base-pair"}]}
